Assay results reported in article PMC10065799, “High-throughput profiling of sequence recognition by tyrosine kinases and SH2 domains using bacterial peptide display” (eLife, 2023).

Assays:
Experiment in all cases: pTyr-Var library bacterial peptide display kinase screen (enrichment scores)
EPHB1 kinase domain = type: biochemical, human; conditions: for Screen (variant relative to reference peptide, measured in the pTyr-Var library screen): sheet "EPHB1", variant seq vs reference seq, bacterial peptide display enrichment; for Screen: sheet EPHB1, effect of the variant peptide relative to its reference peptide in the pTyr-Var library screen (enrichment scores)
c-Src kinase domain = c-Src kinase domain (Homo sapiens, UniProt P12931); type: biochemical; conditions: for Screen: sheet "Src";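 on screen: log2 fold change in enrichment of variant over reference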
c-Abl kinase domain = biological target: T1, c-Abl kinase domain (Mus musculus, UniProt P00520); type: biochemical;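 further: log2 fold change in enrichment of variant over reference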
T1 sequence (P00520 242-493 limits assumed): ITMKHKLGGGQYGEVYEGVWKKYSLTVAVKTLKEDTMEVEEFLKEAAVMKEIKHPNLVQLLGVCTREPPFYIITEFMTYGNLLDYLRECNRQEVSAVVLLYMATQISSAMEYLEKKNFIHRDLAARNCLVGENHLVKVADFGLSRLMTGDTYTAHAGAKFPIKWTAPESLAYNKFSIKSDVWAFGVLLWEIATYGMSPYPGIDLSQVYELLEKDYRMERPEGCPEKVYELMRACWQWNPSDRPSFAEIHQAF

Fer kinase domain = type: biochemical, mouse; conditions: sheet "Fer"
[1] = variant peptide versus its reference peptide in the pTyr-Var library screen
[2] = effect of the variant peptide relative to its reference peptide in the pTyr-Var library screen
[3] = fig5-data2, sheet "Abl", Screen for the variant/reference peptide pair, pTyr-Var library
[4] = variant peptide relative to its reference peptide, pTyr-Var library screen enrichment
[5] = value of the variant peptide against its reference peptide in the pTyr-Var library screen with Fer
[6] = sheet "Abl", effect of variant peptide relative to its reference peptide in pTyr-Var library screen (enrichment)

With MGSFNYLGFPR [SPTLC2_Y178_A182P_YF] the “Screen (variant relative to reference peptide, measured in the pTyr-Var library screen)” value (EPHB1 kinase domain) was 0.8704.

MSRDVYSIDFF [NTRK2_Y702_T704I_YF] was tested, and the Screen (c-Src kinase domain; [1]) was 1.303.

With NACGLYHTMNG [GATA5_Y216_K218T] the Screen (c-Src kinase domain; [2]) was 2.558.

For NDPMEYAKQHG [ASS1_Y163_L160P], the Screen (c-Abl kinase domain; [3]) was 0.6452.

Sequence NFGTNYRVGSS [CPO_Y278_K273N_YF] has a Screen (c-Abl kinase domain; [3]) of 0.7292.

NHFKIYNPCAE [PTEN_Y68_L70P_YF] gave a Screen (c-Abl kinase domain; [3]) of 0.7094 and a Screen (c-Src kinase domain; [1]) of -2.716.

For NTGFFYDLFGG [PTPN11_Y63_D61Y_YF], the Screen (Fer kinase domain; [4]) was -1.238 and the Screen (c-Src kinase domain; [1]) was -0.6353.

Work on NTGNFYDLFGG [PTPN11_Y63_D61N_YF] yielded a Screen (Fer kinase domain; [5]) of 0.7498 and a Screen (c-Src kinase domain; [1]) of 0.1419.

PAGSGYPAFLG [ATP6V1A_Y374_D371G_YF] showed a Screen (EPHB1 kinase domain) of -1.134.

PAVGIYNGNIN [CDCP1_Y707_D709G] gave a Screen (c-Src kinase domain; [2]) of 0.5447.

Work on PEADKYHLTFA [FGG_Y300_R301H_YF] yielded a Screen (EPHB1 kinase domain) of 0.9471.

Work on PFRFIYMAVQH [PTPN11_Y515_Q510P_YF] yielded a Screen (c-Src kinase domain; [1]) of -0.7023.

PFSNSYENSLI [EPOR_Y489_P488S_YF] showed a Screen (Fer kinase domain; [5]) of -1.474.

In the case of PLDGEYFTRQI [TP53_Y327_L330R], the Screen (c-Abl kinase domain; [6]) is reported as 1.752 and the Screen (c-Src kinase domain; [1]) is reported as -2.245.

Work on PLDGEYLTLQI [TP53_Y327_F328L] yielded a Screen (c-Src kinase domain; [1]) of -1.75.

With PMDGEYFTLQI [TP53_Y327_L323M] the Screen (Fer kinase domain; [4]) was 0.4582 and the Screen (c-Src kinase domain; [1]) was 0.4461.

For PQIVKYRPDCI [LDHB_Y128_S129R], the Screen (c-Abl kinase domain; [3]) was -0.6179.

PRRRFYVVACD [RNASE3_Y134_G130R] gave a Screen (c-Src kinase domain; [1]) of -1.377.

QAEELYFGKMG [YES1_Y159_W158L] gave a Screen (c-Src kinase domain; [1]) of 2.237.

In the case of QDEPTYARSSK [PEAK1_Y616_H611Q], the Screen (c-Abl kinase domain; [3]) is reported as 1.067.

Sequence QEGPEYWDLET [HLA-A_Y83_Q86L] has a Screen (EPHB1 kinase domain) of 0.9985.

In the case of QFFQGYFNNNF [ZNF236_Y644_S643G], the Screen (c-Abl kinase domain; [6]) is reported as 3.465.

Work on QHVPDYRQNGF [PCDHGB6_Y889_V893G_YF] yielded a Screen (c-Abl kinase domain; [3]) of -1.654.

Work on QITQVYGFFHE [PPP2CA_Y127_D131H_YF] yielded a Screen (c-Src kinase domain; [1]) of 0.1908.

QLLIEYPPEEV [ZZZ3_Y670_K669E] was tested, and the Screen (c-Abl kinase domain; [6]) was 2.193.

QRRFLYFFSFL [PTEN_Y176_V175L_YF] gave a Screen (Fer kinase domain; [5]) of -0.3574.

QRRLIYRCQVG [NR2E3_Y81_R76Q] gave a Screen (c-Abl kinase domain; [3]) of 1.984.

QRRLVYFERGA [RYR1_Y245_G248R_YF] showed a Screen (c-Abl kinase domain; [3]) of 1.153.

For RAMPVYEKAEH [TP63_Y231_K232E], the Screen (Fer kinase domain; [4]) was 2.795.

Sequence RDSQIYAVDFE [MRPS34_Y34_L33I_YF] has a Screen (c-Src kinase domain; [2]) of 2.537.

For REGAKYVSHGT [ASS1_Y113_A118T], the Screen (c-Abl kinase domain; [3]) was 0.5424.

Sequence REHTVYWEPRK [MAGEA4_Y240_G241W] has a Screen (EPHB1 kinase domain) of 3.741 and a Screen (c-Src kinase domain; [2]) of 1.621.

Work on RGDTVYTVNCM [KBTBD13_Y404_R408C] yielded a Screen (c-Src kinase domain; [2]) of -0.9987.

Sequence RNDRVYQPLRD [CD3D_Y149_Q147R] has a Screen (c-Src kinase domain; [2]) of -1.537.

In the case of RNGDRYFKEIV [DCX_Y64_G67E], the Screen (c-Abl kinase domain; [3]) is reported as 1.189.

Work on RPIEVYLCPEE [E2F3_Y349_G344R] yielded a Screen (c-Src kinase domain; [2]) of 1.834.

With RRIHCYRGHLW [VHL_Y112_S111C] the “Screen (variant relative to reference peptide, measured in the pTyr-Var library screen)” value (EPHB1 kinase domain) was -1.56 and the Screen (c-Src kinase domain; [1]) was -2.571.

For RTVDVYFGPQM [KIRREL3_Y332_R336Q], the Screen (c-Src kinase domain; [2]) was 1.347.

SGLDSYVRSLP [TRAPPC1_Y133_R129G] was tested, and the Screen (c-Abl kinase domain; [6]) was -0.62.

Work on SKNSKYNAGST [PSEN1_Y315_E318G] yielded a Screen (c-Abl kinase domain; [3]) of -0.477.

STEAIYWRFSK [SH3PXD2B_Y42_R43W_YF] gave a Screen (c-Src kinase domain; [1]) of 2.709.

SVCPDYDLCSI [SQSTM1_Y148_V153I] showed a Screen (Fer kinase domain; [4]) of 0.6845 and a Screen (c-Abl kinase domain; [6]) of -2.483.

SVVVPYEPPEL [TP53_Y220_V225L] was tested, and the Screen (c-Abl kinase domain; [6]) was 0.6095.

In the case of TAGFIYEKWEI [TEC_Y360_S359I], the Screen (Fer kinase domain; [4]) is reported as 3.032 and the Screen (c-Src kinase domain; [1]) is reported as 3.208.

TGQEDYDRLRP [RAC1_Y64_A59T] showed a Screen (c-Abl kinase domain; [3]) of -1.28.

With TSPALYRLDLD [TRIL_Y352_A347T] the Screen (c-Abl kinase domain; [6]) was -0.2355 and the Screen (c-Src kinase domain; [1]) was -0.36.

In the case of VDGFVYKLHPS [GCK_Y413_S411F], the Screen (c-Src kinase domain; [2]) is reported as -2.399.

Work on VEDQFYRVDCF [FHL1_Y208_C209R_YF] yielded a Screen (c-Abl kinase domain; [3]) of 0.3405 and a Screen (c-Src kinase domain; [2]) of -0.6364.

VFAANYFKLLG [ROR2_Y645_D644N_YF] showed a Screen (c-Abl kinase domain; [3]) of 0.3272.

With VNFGAYINDFN [GLB1_Y488_K493N_YF] the Screen (c-Abl kinase domain; [3]) was 0.7194.

Sequence VQQVIYATRAL [MYH7_Y422_G425R] has a Screen (c-Abl kinase domain; [3]) of -0.009809 and a Screen (c-Src kinase domain; [1]) of 0.27.

VTAALYGCLFE [BTD_Y536_R538C_YF] was tested, and the Screen (c-Abl kinase domain; [3]) was -0.06766 and the Screen (c-Src kinase domain; [2]) was -0.3028.

For WANPEYTGGFK [TTN_Y22309_K22306N], the Screen (c-Abl kinase domain; [6]) was -1.867.

For YDDGKYVYVVT, the “Enrichment score (mean)” value (c-Src kinase domain; pTyr-Var library screen with c-Src, sheet "Src substrates": annotated Src substrate sites, 11-residue peptide SITE_+/-5_AA, mean) was 1.305.
